Experimental findings from ChEMBL document CHEMBL5036349, “Development of potent dual PDK1/AurA kinase inhibitors for cancer therapy: Lead-optimization, structural insights, and ADME-Tox profile” (Eur J Med Chem, 2021) are described below.

One may read the AUC as concentration integrated over time. As a reminder, the IC50 is the concentration that inhibits the measured activity by half.

The test system of data set [1] is SK-N-MC. In words: Upregulation of C-Myc protein expression level in human SK-N-MC cell at 1 uM incubated for 2 hrs by western blot analysis. Format: functional, tissue-based. (A western blot detects proteins with antibodies after separation by electrophoresis.)
For data set [2], the system named is SK-N-MC. Put plainly: Upregulation of p21 protein expression level in human SK-N-MC cell at 1 uM incubated for 2 hrs by western blot analysis. Format: functional, tissue-based.
Data set [3] in a line: AUC in CD-1 mouse at 10 mg/kg iv measured by UPLC-MS/MS method. Type of data set: ADME, organism-based. As to conditions: in vivo. Also on record: dose 10 mg/kg.
Another data set relates to Rec1. In words: Cytotoxicity against human REC1 cells measured after 72 hrs by MTT assay. Type of data set: functional, cell-based. As to conditions: Rec1, 72 h. (Formazan colour is commonly taken as a measure of viable cells.)
Data set [4] concerns SK-N-MC. In words: Inhibition of MAPK signaling in human SK-N-MC cell assessed as decrease in phosphorylated ERK 1/2 at 1 uM measured after 30 min by Western blot analysis. Format: tissue-based.
Data set [5] is described as follows: Drug uptake in human […] cell at 1.5 uM measured with in 5 min by UPLC-MS/MS analysis. Format: ADME, tissue-based.
Data set [6] in a line: Cytotoxicity against human TC71 cells at 30 uM assessed as cell proliferation rate measured after 72 hrs by MTT assay relative to control. Format: functional. As to conditions: TC-71.
Data set [7] in a line: Cytotoxicity against human 6647 cells at 30 uM assessed as cell proliferation rate measured after 72 hrs by MTT assay relative to control. Format: functional.
Data set [8] is described as follows: Drug uptake in human […] cell at 1.5 uM measured upto 120 min by UPLC-MS/MS analysis. Format: ADME, tissue-based. To be noted: 2 h.
Data set [9] concerns SK-N-MC. Put plainly: Cytotoxicity against human SK-N-MC cells at 30 uM assessed as cell proliferation rate measured after 72 hrs by MTT assay relative to control. Format: functional.
For data set [10], the system named is SK-N-MC. In words: Upregulation of RB1 protein expression level in human SK-N-MC cell at 1 uM incubated for 2 hrs by western blot analysis. Format: functional, tissue-based.
In data set [11] the target is Ribosomal protein S6 kinase alpha-3 (Homo sapiens) (UniProt P51812). In words: Inhibition of human RSK2 in human SK-N-MC cell assessed as inhibition of RSK2 phosphorylation at 1 uM measured after 30 min by Western blot analysis. Format: tissue-based.
Another data set has as its system A673. In words: Cytotoxicity against human A673 cells measured after 72 hrs by MTT assay. Type of data set: functional, cell-based. As to conditions: A673, 72 h.

Active and inactive are the calls of the source. The rule behind the calls is not given here.

Sequence of Ribosomal protein S6 kinase alpha-3 (Homo sapiens) (P51812 whole entry): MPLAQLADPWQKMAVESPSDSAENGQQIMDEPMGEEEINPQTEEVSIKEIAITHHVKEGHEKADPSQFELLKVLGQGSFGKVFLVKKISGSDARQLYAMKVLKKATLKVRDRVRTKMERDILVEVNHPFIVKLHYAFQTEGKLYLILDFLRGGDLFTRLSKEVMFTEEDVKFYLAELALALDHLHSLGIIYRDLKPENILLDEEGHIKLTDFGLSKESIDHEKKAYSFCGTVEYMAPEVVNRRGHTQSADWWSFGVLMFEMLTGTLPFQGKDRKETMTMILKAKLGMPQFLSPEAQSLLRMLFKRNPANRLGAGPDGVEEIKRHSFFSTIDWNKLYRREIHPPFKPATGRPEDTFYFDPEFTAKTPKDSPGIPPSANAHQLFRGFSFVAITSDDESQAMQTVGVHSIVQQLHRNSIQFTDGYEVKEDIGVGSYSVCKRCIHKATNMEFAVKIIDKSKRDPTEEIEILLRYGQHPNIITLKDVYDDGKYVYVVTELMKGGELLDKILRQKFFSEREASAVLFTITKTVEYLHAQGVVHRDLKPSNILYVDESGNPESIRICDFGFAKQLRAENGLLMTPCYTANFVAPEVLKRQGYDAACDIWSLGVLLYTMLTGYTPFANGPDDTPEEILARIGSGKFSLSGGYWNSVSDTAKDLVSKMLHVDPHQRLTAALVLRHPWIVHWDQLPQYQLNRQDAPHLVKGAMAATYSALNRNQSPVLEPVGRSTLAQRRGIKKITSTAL

Regarding `O=C1Nc2ccc(NC(=O)[C@H](NC(=O)c3cccn(Cc4ccc(F)c(F)c4)c3=O)c3ccccc3)cc2/C1=C/c1cnc[nH]1` (stereo in doubt), the result with SK-N-MC [1], with SK-N-MC [2] and in the data set with SK-N-MC [10] was Active. Further, the AUC in data set [3] amounted to 4.22 µg·h/mL. Further, the IC50 in the data set with Rec1 was 11 µM; in the data set on A673 it was greater than 30 µM. Also, the inhibition result (in the data set on SK-N-MC [4]; in [11]) was “Active” throughout. Further, the Drug uptake turned out to be 100 ng/mL in data set [5] and 800 ng/mL in data set [8]. The Emax at 30 µM turned out to be 60% in [6], 84% in data set [7] and 75% in the data set on SK-N-MC [9].
